Measured values reported in ChEMBL document CHEMBL1155576, “Bioactive carotanes from Trichoderma virens” (2000).
The source made the active and inactive calls. The rule behind the calls is not given here.

Tests used:
Type in all cases: functional
Triticum aestivum [1] = assay: Inhibition of etiolated wheat coleoptile growth at 10^-4 M relative to control
Triticum aestivum [2] = assay: Inhibition of etiolated wheat coleoptile growth at 10^-5 M relative to control
Triticum aestivum [3] = assay: Inhibition of etiolated wheat coleoptile growth at 10^-3 M relative to control

In the case of `CC(C)[C@@]1(O)[C@@H]2CC[C@@]3(C)O[C@H]3C[C@@]2(C)C[C@@H]1O` [TRICHOCARANE A], the inhibition at 100 µM (Triticum aestivum [1]) is reported as 40%.
With `CC(C)[C@@]1(O)[C@@H]2CCC(CO)=CC[C@@]2(C)C[C@@H]1O` [TRICHOCARANE B] the inhibition at 100 µM (Triticum aestivum [1]) was 40% and the inhibition at 10 µM (Triticum aestivum [2]) was 19%.
`CC(C)[C@@]1(O)[C@@H]2CCC(CO)CC[C@@]2(C)C[C@@H]1O` (some centres not stated) [TRICHOCARANE C] was tested, and the inhibition at 1000 µM (Triticum aestivum [3]) was 86%.
For `CC(C)(O)[C@@]1(O)[C@@H]2CCC(CO)=CC[C@@]2(C)C[C@@H]1O`, the Activity (Triticum aestivum [1]) was “inactive”, the Activity (Triticum aestivum [2]) was “inactive” and the Activity (Triticum aestivum [3]) was “inactive”.
